Measurements from US20120269739A1, “COMPOSITION, USE, AND PRESERVATION METHOD” (L'OREAL, priority 2009, published 2012).

Assays:
[1] = system: Pseudomonas aeruginosa (Pa) ATCC 19429; assay: Challenge Test (artificial contamination) of cosmetic formula; settings: 22° C., chlorhexidine digluconate 0.3%, gingerone 2%
Experimental: The antimicrobial efficacy of a compound of formula (I) was evaluated via the Challenge Test or artificial contamination method.
The method of the challenge test consists of an artificial contamination of the sample with collection microbial strains (bacteria, yeasts and moulds) and evaluation of the number of revivable microorganisms seven days after the inoculation.
The gram-negative bacteria (Escherichia coli and Pseudomonas aeruginosa), gram-positive bacteria (Enterococcus faecalis), yeast (Candida albicans) and mould (Aspergillus niger) are seeded in the subculturing medium, respectively, the day before the inoculation for the bacteria and the yeast, and five days before the inoculation for the mould.
After homogenizing the microbial suspension, 0.2 ml of inoculum is introduced into each pill bottle (the suspensions are used pure: between 1×10^8 and 3×10^8 cfu per ml) and the microbial suspension in the 20 g of product (=cosmetic formula) is homogenized thoroughly using a spatula.
The content of microorganisms present in the product corresponds after homogenization to a concentration of 10^6 microorganisms per gram of product, i.e. inoculation to 1% of an inoculum containing 10^8 microorganisms per ml.
After 7 days of contact time between the microorganisms and the product at 22° C.±2° C. and in darkness, decimal dilutions are performed and the number of revivable microorganisms remaining in the product is counted.

[2] = system: collection microbial strains (bacteria, yeasts and moulds); assay: Challenge Test, overall finding over strains and formulas; format: cell-based; settings: three formulas, five strains, gingerone 2%
[3] = system: Candida albicans (Ca) ATCC 10231; assay: Challenge Test (artificial contamination) of cosmetic formula; format: cell-based; settings: 22° C., chlorhexidine digluconate 0.3%, gingerone 2%; for Log reduction number after 7 days of contact, relative to the control, Candida albicans: Amt weight %: sodium benzoate 0.6%
Description: (§1) 5 pure microorganism cultures are used.

[4] = system: Aspergillus niger (An) ATCC 6275; assay: as above; format: cell-based; settings: 22° C., chlorhexidine digluconate 0.3%, gingerone 2%
Description: as §1

[5] = system: Escherichia coli (Ec) ATCC 8739; assay: as above; format: cell-based; settings: 22° C., chlorhexidine digluconate 0.3%, gingerone 2%
Description: as §1

[6] = system: Enterococcus faecalis (Ef) ATCC 33186; assay: as above; format: cell-based; settings: 22° C., chlorhexidine digluconate 0.3%, gingerone 2%
Description: as §1

bacteria and yeast = assay: Action kinetics, overall conclusion; format: cell-based; settings: gingerone 2%; in particular on the bacteria
Experimental: (§2) The object of this example is to distinguish a compound according to the invention (gingerone) from the preserving agents conventionally used for protecting cosmetic formulations against microbial contamination, as regards the action kinetics.
(§3) The inoculated samples are then placed in an incubator-agitator at 35° C.±2° C. Samples are taken after 6 hours, 24 hours, 48 hours, 72 hours and 7 days. Decimal dilutions are then prepared in Eugon LT100 broth. These dilutions are left for 30 minutes±15 minutes at 25° C. in order to neutralize the preserving agents, and are then double-seeded on the surface of Petri dishes containing Eugon LT100 agar.

[7] = system: Candida albicans (ATCC 10231); assay: Action kinetics in broth; format: cell-based; settings: Sabouraud broth pH 5.2±0.3, 35° C., gingerone 2%, sodium benzoate 3.3%, chlorhexidine digluconate 2.2%
Experimental: as §2
(§4) The solutions are prepared in Trypto-casein-soya (TS) broth for the bacteria and in Sabouraud broth for the yeast. These solutions are adjusted to pH 5.2±0.3.
(§5) For each microbial solution, a growth control consisting of the appropriate culture medium alone is prepared.
The solutions in Sabouraud broth (36 ml) are inoculated with the yeast (4 ml of suspension) to a final content of 10^6 cfu/ml.
as §3
(§6) The Petri dishes are then incubated in an oven at 35° C.±2° C. for a variable time depending on the strain concerned: • 48 hours; S. aureus; • 5 days: E. faecalis and C. albicans.
(§7) The results are expressed for each solution, each strain and each contact time as the number of cfu/ml of stock solution.

[8] = system: Enterococcus faecalis (ATCC 33186); assay: Action kinetics in broth; format: cell-based; settings: TS broth pH 5.2±0.3, 35° C., gingerone 2%, sodium benzoate 3.3%, chlorhexidine digluconate 2.2%
Experimental: as §2, §4, §5
(§8) The solutions in TS broth (36 ml) are inoculated separately with each of the bacteria (4 ml of microbial suspension) to a final content of 10^6 cfu/ml of mixture.
as §3, §6, §7

[9] = system: Staphylococcus aureus (ATCC 6538); assay: Action kinetics in broth; format: cell-based; settings: TS broth pH 5.2±0.3, 35° C., gingerone 2%, sodium benzoate 3.3%, chlorhexidine digluconate 2.2%
Experimental: as §2, §4, §5, §8, §3, §6, §7

[10] = 1st formula O/W emulsion, Amt weight %: phenoxyethanol 1%, sodium benzoate 0.6%
[11] = 2nd formula lotion (pH 7 ± 0.2), Amt weight %: sodium benzoate 0.6%, phenoxyethanol 1%
[12] = 3rd formula O/W emulsion, Amt weight %: sodium benzoate 0.6%

COc1cc(CCC(C)=O)ccc1O [Gingerone, gingerone]
Log reduction number after 7 days of contact, relative to the control, P. aeruginosa [1, 10]: >4 Log
Log reduction number after 7 days of contact, relative to the control, P. aeruginosa [1, 11]: >3 Log
Log reduction number after 7 days of contact, relative to the control, P. aeruginosa [1, 12]: >4 Log
antimicrobial efficacy across strains and formulatory supports [2]: efficient irrespective of the strain and of the support
Log reduction number after 7 days of contact, relative to the control, C. albicans [3, 10]: >4 Log
Log reduction number after 7 days of contact, relative to the control, Candida albicans ([3]; 2nd formula lotion (pH 7 ± 0.2), phenoxyethanol 1%): >3 Log
Log reduction number after 7 days of contact, relative to the control, Candida albicans ([3]; 3rd formula O/W emulsion): >4 Log
Log reduction number after 7 days of contact, relative to the control, A. niger [4, 10]: >4 Log
Log reduction number after 7 days of contact, relative to the control, A. niger [4, 11]: >4 Log
Log reduction number after 7 days of contact, relative to the control, A. niger [4, 12]: 0.6 Log
Log reduction number after 7 days of contact, relative to the control, E. coli [5, 10]: >4 Log
Log reduction number after 7 days of contact, relative to the control, E. coli [5, 11]: >4 Log
Log reduction number after 7 days of contact, relative to the control, E. coli [5, 12]: >4 Log
Log reduction number after 7 days of contact, relative to the control, E. faecalis [6, 10]: >4 Log
Log reduction number after 7 days of contact, relative to the control, E. faecalis [6, 11]: >0.5 Log
Log reduction number after 7 days of contact, relative to the control, E. faecalis [6, 12]: >4 Log
action kinetics in comparison with conventional preserving agents (bacteria and yeast): much more slowly
Number of cfu counted after strain/solution contact time, Candida albicans ([7]; contact time 0 hours): 2.9 × 10^6 cfu/ml
Number of cfu counted after strain/solution contact time, Candida albicans ([7]; contact time 6 hours): 2.9 × 10^2 cfu/ml
Number of cfu counted after strain/solution contact time, Candida albicans ([7]; contact time 24 hours): <10 cfu/ml
Number of cfu counted after strain/solution contact time, Candida albicans ([7]; contact time 48 hours): <10 cfu/ml
Number of cfu counted after strain/solution contact time, Candida albicans ([7]; contact time 72 hours): <10 cfu/ml
Number of cfu counted after strain/solution contact time, Candida albicans ([7]; contact time 168 hours): <10 cfu/ml
Number of cfu counted after strain/solution contact time, Enterococcus faecalis ([8]; contact time 0 hours): 2.5 × 10^6 cfu/ml
Number of cfu counted after strain/solution contact time, Enterococcus faecalis ([8]; contact time 6 hours): 4.4 × 10^5 cfu/ml
Number of cfu counted after strain/solution contact time, Enterococcus faecalis ([8]; contact time 24 hours): 1.2 × 10^4 cfu/ml
Number of cfu counted after strain/solution contact time, Enterococcus faecalis ([8]; contact time 48 hours): 6.3 × 10^2 cfu/ml
Number of cfu counted after strain/solution contact time, Enterococcus faecalis ([8]; contact time 72 hours): 80 cfu/ml
Number of cfu counted after strain/solution contact time, Enterococcus faecalis ([8]; contact time 168 hours): <10 cfu/ml
Number of cfu counted after strain/solution contact time, Staphylococcus aureus ([9]; contact time 0 hours, first series): 1.7 × 10^6 cfu/ml
Number of cfu counted after strain/solution contact time, Staphylococcus aureus ([9]; contact time 0 hours, second series of Table 1): 2.5 × 10^6 cfu/ml
Number of cfu counted after strain/solution contact time, Staphylococcus aureus ([9]; contact time 6 hours, first series): 1.2 × 10^6 cfu/ml
Number of cfu counted after strain/solution contact time, Staphylococcus aureus ([9]; contact time 6 hours, second series of Table 1): 1.2 × 10^6 cfu/ml
Number of cfu counted after strain/solution contact time, Staphylococcus aureus ([9]; contact time 24 hours, first series): 1.7 × 10^5 cfu/ml
Number of cfu counted after strain/solution contact time, Staphylococcus aureus ([9]; contact time 24 hours, second series of Table 1): 1.6 × 10^5 cfu/ml
Number of cfu counted after strain/solution contact time, Staphylococcus aureus ([9]; contact time 48 hours, first series): 8.1 × 10^3 cfu/ml
Number of cfu counted after strain/solution contact time, Staphylococcus aureus ([9]; contact time 48 hours, second series of Table 1): 9.6 × 10^3 cfu/ml
Number of cfu counted after strain/solution contact time, Staphylococcus aureus ([9]; contact time 72 hours, first series): 40 cfu/ml
Number of cfu counted after strain/solution contact time, Staphylococcus aureus ([9]; contact time 72 hours, second series of Table 1): 1.3 × 10^2 cfu/ml
Number of cfu counted after strain/solution contact time, Staphylococcus aureus ([9]; contact time 168 hours, first series): <100 cfu/ml
Number of cfu counted after strain/solution contact time, Staphylococcus aureus ([9]; contact time 168 hours, second series of Table 1): <10 cfu/ml
